In patent US6482921B1, “Uridyl peptide antibiotic (UPA) derivatives, their synthesis and use” (Essential Therapeutics, Inc., priority 1999, dated 2002):
In brackets after ≈: the same amount, converted by molar mass.

What was measured:
Format in all cases: cell-based
[1] = test system: Escherichia Coli MC 4100 AcrAB UPA3r; assay: MIC broth microdilution, E. coli MC 4100 AcrAB UPA3r (ΔAcrAB, UPA resistant); settings: E. coli AcrAB UPA3^r
[2] = test system: Staphylococcus aureus 8325-4; assay: MIC broth microdilution, S. aureus 8325-4 (wild type); settings: S. aureus 8325-4
[3] = test system: Pseudomonas aeruginosa PAM 1323; assay: MIC broth microdilution, P. aeruginosa PAM 1323 (medium level UPA resistance)
[4] = test system: Staphylococcus aureus ATCC 29213; assay: MIC broth microdilution, S. aureus ATCC 29213 (wild type); settings: S. aureus ATCC 29213
[5] = test system: Pseudomonas aeruginosa PAM 1154; assay: MIC broth microdilution, P. aeruginosa PAM 1154 (OprM::Hg); settings: P. aeruginosa PAM 1154 OprM::Hg
[6] = test system: Escherichia Coli MC 4100 AcrAB; assay: MIC broth microdilution, E. coli MC 4100 AcrAB (ΔAcrAB); settings: E. coli AcrAB
Escherichia Coli MC 4100 = assay: MIC broth microdilution, E. coli MC 4100 (wild type); settings: E. coli MC 4100
[7] = test system: Pseudomonas aeruginosa PAM 1020; assay: MIC broth microdilution, P. aeruginosa PAM 1020 (wild type); settings: P. aeruginosa PAM 1020
[8] = test system: Pseudomonas aeruginosa PAM 1135; assay: MIC broth microdilution, P. aeruginosa PAM 1135 (high level UPA resistance); settings: P. aeruginosa PAM 1135 UPA1^r
[9] = test system: Pasteurella multocida pm002; assay: MIC broth microdilution, P. multocida pm002 (wild type)

SMILES | MIC (μg/ml) Broth microdilution [1] [µg/mL] | MIC (μg/ml) Broth microdilution [2] [µg/mL] | MIC (μg/ml) Broth microdilution [3] [µg/mL] | MIC (μg/ml) Broth microdilution [4] [µg/mL] | MIC (μg/ml) Broth microdilution [5] [µg/mL] | MIC (μg/ml) Broth microdilution [6] [µg/mL] | MIC (μg/ml) Broth microdilution (Escherichia Coli MC 4100) [µg/mL] | MIC (μg/ml) Broth microdilution [7] [µg/mL] | MIC (μg/ml) Broth microdilution [8] [µg/mL] | MIC (μg/ml) Broth microdilution [9] [µg/mL]
C[C@H](N)C(=O)N(C)[C@@H](C)[C@H](NC(=O)[C@H](Cc1ccccc1F)NC(=O)N[C@@H](Cc1c[nH]c2ccccc12)C(=O)O)C(=O)NC[C@H]1C[C@@H](O)[C@H](n2ccc(=O)[nH]c2=O)O1 [Compound 139, 1-[5′-[(2S,3S)-N^3-L-Alanyl-N^2-[N-[[(1S)-1-carboxy-2-indol-3-ylethyl]carbamoyl]-L-2-fluorophenylalanyl]-N^3-methyl-2,3-diaminobutyramido]-3′,5′-dideoxy-α-L-arabinofuranosyl]uracil] | 64 (≈ 79.2 µM) | 256 (≈ 317 µM) | 512 (≈ 634 µM) | 256 (≈ 317 µM) | 8 (≈ 9.9 µM) | 2 (≈ 2.48 µM) | >512 | 64 (≈ 79.2 µM) | >512 | 256 (≈ 317 µM)
C[C@H](N)C(=O)N(C)[C@@H](C)[C@H](NC(=O)[C@H](Cc1ccccc1F)NC(=O)N[C@@H](Cc1ccc(O)cc1)C(=O)O)C(=O)NC[C@H]1C[C@@H](O)[C@H](n2ccc(=O)[nH]c2=O)O1 [Compound 140, 1-[5′-[(2S,3S)-N^3-L-Alanyl-N^2-[N-[[(1S)-1-carboxy-4-hydroxyphenethyl]carbamoyl]-L-2-fluorophenylalanyl]-N^3-methyl-2,3-diaminobutyramido]-3′,5′-dideoxy-α-L-arabinofuranosyl]uracil] | 8 (≈ 10.2 µM) | 512 (≈ 652 µM) | 512 (≈ 652 µM) | 512 (≈ 652 µM) | 4 (≈ 5.1 µM) | <1 | 64 (≈ 81.5 µM) | 64 (≈ 81.5 µM) | >512 | >512
C[C@H](N)C(=O)N(C)[C@@H](C)[C@H](NC(=O)[C@H](Cc1ccc(F)c(F)c1)NC(=O)N[C@@H](Cc1c[nH]c2ccccc12)C(=O)O)C(=O)NC[C@H]1C[C@@H](O)[C@H](n2ccc(=O)[nH]c2=O)O1 [Compound 143, 1-[5′-[(2S,3S)-N^3-L-Alanyl-N^2-[N-[[(1S)-1-carboxy-2-indol-3-ylethyl]carbamoyl]-L-(3,4)-difluorophenylalanyl]-N^3-methyl-2,3-diaminobutyramido]-3′,5′-dideoxy-α-L-arabinofuranosyl]uracil] | 16 (≈ 19.4 µM) | 256 (≈ 310 µM) | >512 | 512 (≈ 620 µM) | 16 (≈ 19.4 µM) | <1 | 256 (≈ 310 µM) | 128 (≈ 155 µM) | >512 | 128 (≈ 155 µM)
C[C@H](N)C(=O)N(C)[C@@H](C)[C@H](NC(=O)[C@H](Cc1ccc(F)c(F)c1)NC(=O)N[C@@H](Cc1ccc(O)cc1)C(=O)O)C(=O)NC[C@H]1C[C@@H](O)[C@H](n2ccc(=O)[nH]c2=O)O1 [Compound 144, 1-[5′-[(2S,3S)-N^3-L-Alanyl-N^2-[N-[[(1S)-1-carboxy-4-hydroxyphenethyl]carbamoyl]-L-(3,4)-difluorophenylalanyl]-N^3-methyl-2,3-diaminobutyramido)-3′,5′-dideoxy-α-L-arabinofuranosyl]uracil] | <1 | 512 (≈ 638 µM) | >512 | >512 | 8 (≈ 9.97 µM) | <1 | 4 (≈ 4.98 µM) | 64 (≈ 79.7 µM) | >512 | 256 (≈ 319 µM)
